Test results reported in ChEMBL document CHEMBL1201862, “PubChem BioAssay data set” (2004).
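Five concentrations, 48 hours, 96-well plates. GI50 is the concentration that inhibits growth by half.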 Active and inactive are the calls of the source. Cut-off read from the data, not from the text of the source: active = GI50 up to about 1.1 µM and inactive = higher.

What was measured:
Experiment in all cases: inhibition of tumour cell growth, NCI panel, 48 h
ACHN = test system: ACHN
HOP-92 = test system: HOP-92
HT-29 = test system: HT-29
Malme-3M = test system: Malme-3M
NCI-H226 = test system: NCI-H226
NCI-H522 = test system: NCI-H522
RPMI-8226 = test system: RPMI-8226
SF-539 = test system: SF-539
SK-MEL-5 = test system: SK-MEL-5
SK-OV-3 = test system: SK-OV-3
SN12C = test system: SN12C
SNB-19 = test system: SNB-19
SW-620 = test system: SW-620
U-251 = test system: U-251
UACC-257 = test system: UACC-257
UO-31 = test system: UO-31
RXF 393 = test system: RXF 393

Measured: GI50

C[C@]12CCCC(=O)C1(O)C[C@H](C(=O)O)CC2 (some centres undefined)
inactive: ACHN > 100 µM | HOP-92 > 100 µM | HT-29 > 100 µM | Malme-3M > 100 µM | NCI-H226 > 100 µM | NCI-H522 > 100 µM | RPMI-8226 > 100 µM | SF-539 > 100 µM | SK-MEL-5 > 100 µM | SK-OV-3 > 100 µM | SN12C > 100 µM | SNB-19 > 100 µM | SW-620 > 100 µM | U-251 > 100 µM | UACC-257 > 100 µM | UO-31 > 100 µM

O=c1c2ccccc2nc(-c2ccccc2)n1NC1OC(CO)C(O)C(O)C1O (centres undefined)
inactive: ACHN > 100 µM | HOP-92 > 100 µM | HT-29 > 100 µM | Malme-3M > 100 µM | NCI-H226 > 100 µM | NCI-H522 > 100 µM | RPMI-8226 > 100 µM | SF-539 > 100 µM | SK-MEL-5 > 100 µM | SK-OV-3 > 100 µM | SN12C > 100 µM | SNB-19 > 100 µM | SW-620 > 100 µM | U-251 > 100 µM | UACC-257 > 100 µM | UO-31 > 100 µM

CCCCC1CC(c2ccc(Cl)cc2)=NO1 (centres undefined)
inactive: ACHN > 100 µM | HOP-92 > 100 µM | HT-29 > 100 µM | Malme-3M > 100 µM | NCI-H226 > 100 µM | NCI-H522 > 100 µM | RPMI-8226 > 100 µM | SF-539 > 100 µM | SK-MEL-5 > 100 µM | SK-OV-3 > 100 µM | SN12C > 100 µM | SNB-19 > 100 µM | SW-620 > 100 µM | U-251 > 100 µM | UACC-257 > 100 µM | UO-31 > 100 µM

Cc1ccc(NC(=O)CC2SC(Nc3cccc(Cl)c3C)=NC2=O)cc1 (centres undefined)
inactive: ACHN 41 µM | HT-29 > 100 µM | Malme-3M 52.4 µM | RPMI-8226 28.2 µM | SF-539 53.1 µM | SK-MEL-5 29.6 µM | SK-OV-3 > 100 µM | SN12C 50.9 µM | SNB-19 40.4 µM | SW-620 68.5 µM | U-251 50.4 µM | UACC-257 48 µM | UO-31 22.6 µM

OC1(c2ccccc2)OC(C#Cc2ccccc2)(c2ccccc2)c2ccccc21 (centres undefined)
inactive: HOP-92 4 µM | HT-29 2.02 µM | Malme-3M 10.6 µM | NCI-H226 2.62 µM | NCI-H522 7.48 µM | RPMI-8226 1.94 µM | RXF 393 1.95 µM | SF-539 1.97 µM | SK-MEL-5 7.89 µM | SK-OV-3 1.46 µM | SN12C 3.25 µM | SNB-19 13.2 µM | SW-620 4.12 µM | U-251 4.12 µM | UACC-257 8.32 µM | UO-31 1.71 µM

NC(=O)c1ccc([N+](=O)[O-])cc1
inactive: HT-29 > 100 µM | Malme-3M > 100 µM | NCI-H226 > 100 µM | NCI-H522 > 100 µM | RPMI-8226 > 100 µM | RXF 393 > 100 µM | SF-539 > 100 µM | SK-MEL-5 > 100 µM | SK-OV-3 > 100 µM | SN12C > 100 µM | SNB-19 > 100 µM | SW-620 > 100 µM | U-251 > 100 µM | UACC-257 > 100 µM | UO-31 > 100 µM

COc1ccc(OC)c(NC(=O)C(=O)NNC(=O)c2sc(NNC(C)=O)nc2C)c1
inactive: ACHN 29.2 µM | HOP-92 8.69 µM | HT-29 35.6 µM | Malme-3M 49.2 µM | NCI-H226 32.7 µM | NCI-H522 18.2 µM | RPMI-8226 30.3 µM | SF-539 26.8 µM | SK-MEL-5 39.9 µM | SK-OV-3 57.7 µM | SN12C 33 µM | SNB-19 59.4 µM | SW-620 22.6 µM | U-251 36.6 µM | UACC-257 23.6 µM | UO-31 45.4 µM

Cn1nc(-c2ccccc2)c(C(=O)/C=C/c2ccc(F)cc2)c(N2CCCC2)c1=O
inactive: ACHN 24.1 µM | HOP-92 13.9 µM | HT-29 4.99 µM | NCI-H522 6.4 µM | RPMI-8226 6.62 µM | RXF 393 8.2 µM | SF-539 13.6 µM | SK-MEL-5 12.4 µM | SK-OV-3 19.5 µM | SN12C 16.9 µM | SNB-19 17.2 µM | SW-620 15.6 µM | U-251 13.2 µM | UO-31 > 10 µM

COc1cc(OC(=O)c2c(O)cc(O)c(O)c2C)cc(C)c1C(=O)Oc1cc(C)c(C(=O)O)c(O)c1
inactive: ACHN > 100 µM | HOP-92 > 100 µM | HT-29 > 100 µM | Malme-3M > 100 µM | NCI-H226 > 100 µM | NCI-H522 > 100 µM | RPMI-8226 > 100 µM | RXF 393 > 100 µM | SF-539 > 100 µM | SK-MEL-5 > 100 µM | SK-OV-3 > 100 µM | SN12C > 100 µM | SW-620 > 100 µM | U-251 > 100 µM | UACC-257 > 100 µM | UO-31 > 100 µM

COc1ccc(CCc2cc(OC)c(O)c(OC)c2)cc1
inactive: ACHN 80.5 µM | HOP-92 66.8 µM | HT-29 41 µM | Malme-3M 74.1 µM | NCI-H226 41.8 µM | NCI-H522 29.7 µM | RPMI-8226 50.8 µM | SF-539 60.7 µM | SK-MEL-5 32.8 µM | SK-OV-3 > 100 µM | SN12C > 100 µM | SNB-19 98.6 µM | SW-620 37.4 µM | U-251 41.8 µM | UACC-257 29.3 µM | UO-31 42.6 µM

Cc1ccccc1-n1c(C)nc2c1C(=O)c1ccccc1C2=O
inactive: ACHN 53.3 µM | HT-29 37.2 µM | Malme-3M 15.3 µM | NCI-H226 48.3 µM | NCI-H522 21.2 µM | RXF 393 > 100 µM | SF-539 28.2 µM | SK-MEL-5 22.1 µM | SN12C 52.4 µM | SNB-19 55.5 µM | SW-620 40.5 µM | U-251 72.1 µM | UACC-257 35.2 µM | UO-31 39.2 µM

CCOC(=O)c1cc2c(OCc3ccccc3)c(OC)cc3c2c(n1)N(c1ccc(OC)cc1)C(C)C3 (centres undefined)
inactive: ACHN > 50 µM | HOP-92 8.91 µM | Malme-3M > 50 µM | NCI-H522 25.2 µM | RPMI-8226 2.69 µM | RXF 393 33.6 µM | SK-MEL-5 > 50 µM | SK-OV-3 > 50 µM | SN12C > 50 µM | SNB-19 > 50 µM | SW-620 > 50 µM | U-251 28.6 µM | UO-31 > 50 µM

O=c1c2ccccc2nc(-c2ccccc2)n1NC(=S)Nc1ccc(Cl)cc1[N+](=O)[O-]
inactive: ACHN > 100 µM | HOP-92 55.1 µM | HT-29 69.3 µM | Malme-3M > 100 µM | NCI-H226 20.3 µM | NCI-H522 42.7 µM | RPMI-8226 80.5 µM | RXF 393 22.9 µM | SF-539 41.1 µM | SK-MEL-5 58.7 µM | SK-OV-3 > 100 µM | SN12C 65 µM | SW-620 > 100 µM | U-251 80.4 µM | UACC-257 88.3 µM | UO-31 42.2 µM

COC(=O)C1=C(CO)C2C=CC1C2 (centres undefined)
inactive: ACHN > 100 µM | HT-29 > 100 µM | Malme-3M > 100 µM | NCI-H226 > 100 µM | NCI-H522 > 100 µM | RPMI-8226 > 100 µM | RXF 393 > 100 µM | SF-539 > 100 µM | SK-MEL-5 > 100 µM | SK-OV-3 > 100 µM | SN12C > 100 µM | SNB-19 > 100 µM | SW-620 > 100 µM | U-251 > 100 µM | UACC-257 > 100 µM | UO-31 > 100 µM

CCOC(=O)c1c2cccccc2n2c(=O)cc(C)nc12
inactive: ACHN > 100 µM | HT-29 > 100 µM | NCI-H226 > 100 µM | NCI-H522 > 100 µM | RPMI-8226 > 100 µM | RXF 393 > 100 µM | SF-539 > 100 µM | SN12C > 100 µM | SNB-19 > 100 µM | SW-620 > 100 µM | U-251 > 100 µM | UACC-257 > 100 µM | UO-31 > 100 µM

O=C(c1ccc(Cl)cc1Cl)N(/N=C/C=C/c1ccccc1)c1nnc(-c2ccccc2)c(-c2ccccc2)n1
inactive: ACHN > 100 µM | HT-29 > 100 µM | Malme-3M > 100 µM | NCI-H226 > 100 µM | NCI-H522 21.8 µM | RPMI-8226 37.5 µM | RXF 393 > 100 µM | SF-539 > 100 µM | SK-MEL-5 > 100 µM | SK-OV-3 > 100 µM | SN12C > 100 µM | SNB-19 > 100 µM | SW-620 > 100 µM | U-251 > 100 µM | UACC-257 > 100 µM | UO-31 76.4 µM

COc1ccc(OC)c2c1C(=O)C1CC1(Br)C2=O (centres undefined)
inactive: ACHN > 100 µM | HT-29 > 100 µM | Malme-3M > 100 µM | NCI-H522 > 100 µM | RPMI-8226 > 100 µM | SF-539 > 100 µM | SK-MEL-5 > 100 µM | SK-OV-3 > 100 µM | SN12C > 100 µM | SNB-19 > 100 µM | SW-620 > 100 µM | U-251 > 100 µM | UACC-257 > 100 µM | UO-31 > 100 µM

CSc1ccc(/C=C2/C[N+](C)(C)C/C(=C/c3ccc(SC)cc3)C2=O)cc1
inactive: ACHN 18 µM | HOP-92 24.5 µM | Malme-3M 4.16 µM | NCI-H226 32.1 µM | NCI-H522 7.36 µM | RPMI-8226 2.93 µM | RXF 393 17 µM | SF-539 17.7 µM | SN12C 7.89 µM | SW-620 12.2 µM | U-251 2.54 µM | UACC-257 15.8 µM | UO-31 > 100 µM
